20 compounds from patent US10202377B2, “3-(1H-benzo[D]imidazol-2-yl)-1H-pyrazolo[3,4-C]pyridine and therapeutic uses thereof” (Samumed, LLC, priority 2014, dated 2019) can be followed below.

Experiment [1] relates to primary human fibroblasts derived from IPF patients (LL29 cells). In words: Inhibition of fibrosis (αSMA staining) in TGF-β1-treated primary human fibroblasts from IPF patients. It is filed as cell-based. To be noted: Fibroblast, 96 h, TGF-β1 20 ng/mL, 4 days. The essentials: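 LL29 IPF fibroblasts in F12 with 1% FBS were stimulated with TGF-β1 (20 ng/mL) and incubated 4 days at 37 °C. SYTOX-positive dead cells were excluded, and αSMA-positive cells were counted by immunostaining as % of total. Values were normalized to TGF-β1/DMSO wells on the same plate, and EC50 derived.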

Experiment [2] deals with primary human mesenchymal stem cells (hMSCs). In words: Chondrogenesis induction in primary human mesenchymal stem cells (nodule imaging, Rhodamine B/Nile Red). It is filed as cell-based. The settings on record: 6 days, dose at which the compound reached maximum chondrogenesis activity, dose range 10-2700 nM. How it is done: The above synthesized compounds were screened using primary human mesenchymal stem cells (hMSCs) to determine their ability to induce chondrogenesis (process by which cartilage is developed).
Human Mesenchymal Stem Cell Culture: Primary human mesenchymal stem cells (hMSCs) were purchased from Lonza (Walkersville, Md.) and expanded in Mesenchymal Stem Cell Growth Media (Lonza). Cells between passage 3 and 6 were used for the experiments.
Compound Screening: Each compound was dissolved in DMSO as a 10 mM stock and used to prepare compound source plates. Serial dilution (1:3, 6-point dose-response curves from 2700 nM to 10 nM) and compound transfer was performed using the ECHO 550 (Labcyte, Sunnyvale, Calif.) into 96-well clear bottom assay plates (Greiner Bio-One) with appropriate DMSO backfill for a final DMSO concentration of 0.03%. hMSCs were plated at 20,000 cells/well in 250 μL/well Incomplete Chondrogenic Induction Medium (Lonza; DMEM, dexamethasone, ascorbate, insulin-transferrin-selenium [ITS supplement], gentamycin-amphotericin [GA-1000], sodium pyruvate, proline and L-glutamine). TGF-β3 (10 ng/mL) was used as a positive control for differentiation while negative control wells were treated with 75 nL DMSO for normalization and calculating EC50 values. Cells were incubated at 37° C. and 5% CO2 for 6 days. To image chondrogenic nodules, the cells were fixed using 4% formaldehyde (Electron Microscopy Sciences), and stained with 2 μg/mL Rhodamine B (Sigma-Aldrich) and 20 μM Nile Red (Sigma-Aldrich) [Johnson K., et. al, A Stem Cell-Based Approach to Cartilage Repair, Science, (2012), 336(6082), 717-721]. The nodules imaged (4 images per well at 4× magnification) by excitation at 531 nm and emission at 625 nm and quantified using the CellInsight CX5 (Thermo Scientific). Number of nodules in each well was normalized to the average of 3 DMSO treated wells on the same plate using Excel (Microsoft Inc.). The normalized averages (fold change over DMSO) of 3 replicate wells for each compound concentration were calculated. Due to solubility limitations of some of the compounds, curve fitting was incomplete leading to inaccurate EC50 determinations.
Using TGF-β3 as a positive control, the concentration of test compounds required to induce equivalent levels of chondrogenesis is reported. In addition, the maximum activity of each compound and the respective dose that each compound reached maximum chondrogenesis activity is reported.

Experiment [3] deals with Wnt activity (Sp5-Luc reporter, SW480 colon carcinoma cells). The experiment is described as follows: Sp5-Luc Wnt reporter gene screening assay in SW480 colon carcinoma cells. To be noted: Homo sapiens.

With `Nc1cncc(-c2cc3c(-c4nc5c(-c6ccccc6F)cccc5[nH]4)n[nH]c3cn2)c1` [Compound 55, 5-(3-(4-(2-Fluorophenyl)-1H-benzo[d]imidazol-2-yl)-1H-pyrazolo[3,4-c]pyridin-5-yl)pyridin-3-amine], the EC50 – broadly, the concentration giving half of the maximal effect – in experiment [1] worked out at 9 nM. The “Conc (nM) of Max. activity” value in experiment [2] was 900 nM. The half-inhibitory concentration (IC50) (in general, the concentration needed to halve the response being measured) in experiment [3] came to 19.5 nM.
For `CC(C)C(=O)Nc1cncc(-c2cc3c(-c4nc5c(-c6ccsc6)cccc5[nH]4)n[nH]c3cn2)c1` [Compound 269, N-(5-(3-(4-(Thiophen-3-yl)-1H-benzo[d]imidazol-2-yl)-1H-pyrazolo[3,4-c]pyridin-5-yl)pyridin-3-yl)isobutyramide], in that order: 49 nM, 900 nM and 4.2 nM.
The corresponding values for `CC(C)Nc1cncc(-c2cc3c(-c4nc5c(-c6cc(F)cc(NCCN(C)C)c6)cccc5[nH]4)n[nH]c3cn2)c1` [Compound 454, N^1-(3-Fluoro-5-(2-(5-(5-(isopropylamino)pyridin-3-yl)-1H-pyrazolo[3,4-c]pyridin-3-yl)-1H-benzo[d]imidazol-4-yl)phenyl)-N^2,N^2-dimethylethane-1,2-diamine] are 117 nM, 300 nM and 51.6 nM.
`CN(C)Cc1cncc(-c2cc3c(-c4nc5c(-c6cccc(F)c6)cccc5[nH]4)n[nH]c3cn2)c1` [Compound 13, 1-(5-(3-(4-(3-Fluorophenyl)-1H-benzo[d]imidazol-2-yl)-1H-pyrazolo[3,4-c]pyridin-5-yl)pyridin-3-yl)-N,N-dimethylmethanamine]: the midpoint of the response in experiment [1], the EC50, lay at 9 nM. For the same compound, in experiment [2], the “Conc (nM) of Max. activity” value is reported as 300 nM. The compound further displayed an IC50 in experiment [3] of 19.1 nM.
In the case of `CC(C)CC(=O)Nc1cncc(-c2cc3c(-c4nc5c(-c6ccoc6)cccc5[nH]4)n[nH]c3cn2)c1` [Compound 288, N-(5-(3-(4-(Furan-3-yl)-1H-benzo[d]imidazol-2-yl)-1H-pyrazolo[3,4-c]pyridin-5-yl)pyridin-3-yl)-3-methylbutanamide], the EC50 in experiment [1] was 9 nM. In experiment [2], the “Conc (nM) of Max. activity” value is 10 nM. In addition, 6.8 nM corresponded to half-maximal inhibition in experiment [3] (IC50).
Turning to `Cc1cn(-c2cccc3[nH]c(-c4n[nH]c5cnc(-c6cncc(NC(=O)CC(C)C)c6)cc45)nc23)cn1` [Compound 184, 3-Methyl-N-(5-(3-(4-(4-methyl-1H-imidazol-1-yl)-1H-benzo[d]imidazol-2-yl)-1H-pyrazolo[3,4-c]pyridin-5-yl)pyridin-3-yl)butanamide], the EC50 in experiment [1] was determined as 277 nM. In addition, the “Conc (nM) of Max. activity” value in experiment [2] was 30 nM. In addition, the IC50 in experiment [3] is 55.1 nM.
`Cc1ccc(-c2cccc3[nH]c(-c4n[nH]c5cnc(-c6cncc(NC(=O)C7CCCC7)c6)cc45)nc23)s1` [Compound 385, N-(5-(3-(4-(5-Methylthiophen-2-yl)-1H-benzo[d]imidazol-2-yl)-1H-pyrazolo[3,4-c]pyridin-5-yl)pyridin-3-yl)cyclopentanecarboxamide]: in experiment [1], the EC50 is 20 nM. For the same compound, the IC50 in experiment [3] worked out at 33.1 nM.
`Fc1cccc(-c2cccc3[nH]c(-c4n[nH]c5cnc(-c6cncc(CN7CCC(F)(F)C7)c6)cc45)nc23)c1` [Compound 25, 5-(5-((3,3-Difluoropyrrolidin-1-yl)methyl)pyridin-3-yl)-3-(4-(3-fluorophenyl)-1H-benzo[d]imidazol-2-yl)-1H-pyrazolo[3,4-c]pyridine] gave an EC50 in experiment [1] of 48 nM. In experiment [3], this compound returned an IC50 of 87.3 nM.
Consider `CCCC(=O)Nc1cncc(-c2cc3c(-c4nc5c(-c6cc(F)cc(CNS(C)(=O)=O)c6)cccc5[nH]4)n[nH]c3cn2)c1` [Compound 433, N-(5-(3-(4-(3-Fluoro-5-(methylsulfonamidomethyl)phenyl)-1H-benzo[d]imidazol-2-yl)-1H-pyrazolo[3,4-c]pyridin-5-yl)pyridin-3-yl)butyramide], for which, in experiment [1], the EC50 was 9 nM. This compound also registered an IC50 in experiment [3] of 28.5 nM.
Turning to `CCC(=O)Nc1cncc(-c2cc3c(-c4nc5c(N6CCCCC6)cccc5[nH]4)n[nH]c3cn2)c1` [Compound 157, N-(5-(3-(4-(Piperidin-1-yl)-1H-benzo[d]imidazol-2-yl)-1H-pyrazolo[3,4-c]pyridin-5-yl)pyridin-3-yl)propionamide], the response in experiment [1] was half-maximal at 99 nM (EC50). In experiment [3], this compound had an IC50 of 97.2 nM.
`COc1cc(F)cc(-c2cccc3[nH]c(-c4n[nH]c5cnc(-c6cncc(NC(=O)CC(C)C)c6)cc45)nc23)c1` [Compound 1394, N-(5-(3-(4-(3-Fluoro-5-methoxyphenyl)-1H-benzo[d]imidazol-2-yl)-1H-pyrazolo[3,4-c]pyridin-5-yl)pyridin-3-yl)-3-methylbutanamide] had an EC50 in experiment [1] of 21 nM. The compound also displayed an IC50 in experiment [3] of 183 nM.
In experiment [1], `CC(C)(C)CC(=O)Nc1cncc(-c2cc3c(-c4nc5ccccc5[nH]4)n[nH]c3cn2)c1` [Compound 250, N-(5-(3-(1H-Benzo[d]imidazol-2-yl)-1H-pyrazolo[3,4-c]pyridin-5-yl)pyridin-3-yl)-3,3-dimethylbutanamide] displayed an EC50 of 258 nM. For the same compound, the IC50 in experiment [3] was found to be 183 nM.
In the case of `Cc1cn(-c2cccc3[nH]c(-c4n[nH]c5cnc(-c6cncc(NC(=O)C(C)(C)C)c6)cc45)nc23)cn1` [Compound 190, N-(5-(3-(4-(4-Methyl-1H-imidazol-1-yl)-1H-benzo[d]imidazol-2-yl)-1H-pyrazolo[3,4-c]pyridin-5-yl)pyridin-3-yl)pivalamide], the response in experiment [1] was half-maximal at 9 nM (EC50). For the same compound, the IC50 in experiment [3] was found to be 53.5 nM.
Take `O=C(Cc1ccccc1)Nc1cncc(-c2cc3c(-c4nc5ccccc5[nH]4)n[nH]c3cn2)c1` [Compound 244, N-(5-(3-(1H-Benzo[d]imidazol-2-yl)-1H-pyrazolo[3,4-c]pyridin-5-yl)pyridin-3-yl)-2-phenylacetamide]: a half-maximal effect in experiment [1] (EC50) was put at 1960 nM. For the same compound, the IC50 in experiment [3] came out at 211 nM.
As to `Fc1cccc(-c2cccc3[nH]c(-c4n[nH]c5cnc(-c6ccccn6)cc45)nc23)c1` [Compound 953, 3-(4-(3-Fluorophenyl)-1H-benzo[d]imidazol-2-yl)-5-(pyridin-2-yl)-1H-pyrazolo[3,4-c]pyridine], the EC50 in experiment [1] amounted to 9 nM. Moreover, the IC50 in experiment [3] stood at 250 nM.
Compound `CCCCC(=O)Nc1cncc(-c2cc3c(-c4nc5c(-c6cc(F)cc(NCCN(C)C)c6)cccc5[nH]4)n[nH]c3cn2)c1` [Compound 460, N-(5-(3-(4-(3-((2-(Dimethylamino)ethyl)amino)-5-fluorophenyl)-1H-benzo[d]imidazol-2-yl)-1H-pyrazolo[3,4-c]pyridin-5-yl)pyridin-3-yl)pentanamide] returned an EC50 in experiment [1] of 1060 nM. The compound also gave a 50% inhibitory concentration (IC50) in experiment [3] of 182 nM.
The corresponding values for `CN(C)c1cncc(-c2cc3c(-c4nc5c(-c6cccc(F)c6)cccc5[nH]4)n[nH]c3cn2)c1` [Compound 7, 5-(3-(4-(3-Fluorophenyl)-1H-benzo[d]imidazol-2-yl)-1H-pyrazolo[3,4-c]pyridin-5-yl)-N,N-dimethylpyridin-3-amine] are 17 nM and 42.4 nM.
For `Cc1ccncc1-c1cc2c(-c3nc4c(-c5ccncc5)cccc4[nH]3)n[nH]c2cn1` [Compound 109, 5-(4-Methylpyridin-3-yl)-3-(4-(pyridin-4-yl)-1H-benzo[d]imidazol-2-yl)-1H-pyrazolo[3,4-c]pyridine], in that order: 29 nM and 42.5 nM.
For `FC1(F)CCN(Cc2cncc(-c3cc4c(-c5nc6c(N7CCCCC7)cccc6[nH]5)n[nH]c4cn3)c2)C1` [Compound 181, 5-(5-((3,3-Difluoropyrrolidin-1-yl)methyl)pyridin-3-yl)-3-(4-(piperidin-1-yl)-1H-benzo[d]imidazol-2-yl)-1H-pyrazolo[3,4-c]pyridine], in that order: 9 nM and 87.1 nM.
The compound `O=C(Nc1cncc(-c2cc3c(-c4nc5c(-c6ccc(F)s6)cccc5[nH]4)n[nH]c3cn2)c1)C1CCC1` [Compound 358, N-(5-(3-(4-(5-Fluorothiophen-2-yl)-1H-benzo[d]imidazol-2-yl)-1H-pyrazolo[3,4-c]pyridin-5-yl)pyridin-3-yl)cyclobutanecarboxamide] showed an EC50 in experiment [1] of 9990 nM. Half-maximal inhibition in experiment [3] (IC50) was put at 11.6 nM.
